The text below walks through data of PubChem BioAssay (NCI).

Where “and” joins values, the source holds several entries; their conditions need not be identical. Equal values may be shown once.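 Tested at 5 concentrations; 48 h exposure; 96-well plates; endpoints linearly interpolated, else capped at highest concentration. TGI: concentration producing complete growth inhibition.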 Numbered stars: 1 amine (or outer) side, 2 acyl side, 3 side chain; on linkers, the order of the positions; unused ones are H or OH. Bridge positions count the residues as written; N and C are the ends. Square brackets hold non-standard residues; d marks the D form. Peptide text beside a SMILES is read from it. I, II: the chains in the order shown. Actinocin(1to9) = Cc1c2oc3c(C)ccc(C(=O)[*:2])c3nc-2c(C(=O)[*:1])c(N)c1=O; NMeV = CN[CH](C(=O)O)C(C)C; Sar = CNCC(=O)O

Holding throughout (assay): inhibition of tumour cell growth, NCI panel, 48 h
Assay [1] deals with HT29 colon.
The test system of assay [2] is NCI-H226 lung.
In assay [3] the test system is SK-MEL-5 melanoma.
Assay [4] relates to HL-60(TB) leukemia.
For assay [5], the system named is OVCAR-5 ovarian.
Assay [6] concerns UACC-62 melanoma.
For assay [7], the system named is TK-10 renal.
The subject of assay [8] is HCC-2998 colon.
Assay [9] relates to M14 melanoma.
Assay [10] concerns OVCAR-3 ovarian.

`CCN(CC)c1ccc2cc(-c3csc(-c4ccc(N(C)C)cc4)n3)c(=O)oc2c1`: the TGI in assay [1], in [2], in [3], in assay [4], in assay [5] and in assay [6] was greater than 100 µM in each case. In addition, the TGI in [7], in assay [8] and in assay [9] was greater than 100 µM throughout.

`O=c1[nH]c(=S)c2[nH]c(=O)n(-c3ccccc3)c2[nH]1`: the TGI in assay [1], in assay [2], in assay [3], in assay [5], in [6] and in assay [7] was greater than 100 µM in each case. Also, the TGI in assay [8], in assay [9] and in assay [10] was greater than 100 µM each time.

As to `Cn1c2c(c3c(=O)[nH]ncc31)CCCc1ccccc1-2`, the TGI in assay [1] was greater than 100 µM; in assay [2] it was 86 µM; in [3], 30.5 µM; in assay [4], 16.3 µM; in [5], greater than 100 µM; in [6] it was greater than 100 µM. The figures for the TGI in assay [7], in assay [9] and in assay [10] were greater than 100 µM, greater than 100 µM and 86.4 µM, respectively.

With `COc1cc(OC)cc(Oc2nc3c(N)cc(C(F)(F)F)cc3nc2-c2ccccc2)c1`, the TGI in assay [1] is greater than 100 µM; in assay [2], greater than 100 µM; in assay [3], greater than 100 µM; in assay [4], 52.4 µM; in assay [6] it was greater than 100 µM; in assay [7], greater than 100 µM. Also, the TGI in assay [8] and in [9] was greater than 100 µM throughout.

With `COC(=O)c1ccccc1Nc1ccccc1C(=O)OC`, the TGI in assay [1] was greater than 100 µM; in assay [2], 71.6 µM; in assay [3] it was greater than 100 µM; in assay [4], greater than 100 µM; in [5], greater than 100 µM; in assay [6] it was greater than 100 µM. Besides, the TGI in assay [7], in assay [9] and in [10] was greater than 100 µM in each case.

With `O[C@H]1[C@@H]2OC[C@@H](O)[C@H](OCc3ccccc3)[C@@](COCc3ccccc3)(O2)[C@@H]1OCc1ccccc1`, the TGI came out at 28.7 µM in assay [1]; 68.6 µM in assay [4]; 30 µM in assay [5]; 23.5 µM in assay [6]; 32.5 µM in [7]; 36.3 µM in assay [9]. The compound further yielded a TGI in [10] of 19.4 µM.

`CCCC(=O)OC1=C(c2ccccc2)Sc2ccccc2-n2cccc21`: the TGI in assay [1], in [3], in assay [4], in assay [6], in assay [7] and in assay [8] was greater than 10 µM throughout. In assay [9], this compound showed a TGI greater than 10 µM.

For the compound `CC(C)C(=O)CP(=O)(O)O`, the TGI in [1], in assay [2], in assay [3], in assay [4], in assay [5] and in assay [6] was greater than 100 µM in each case. Besides, the TGI in [7], in [9] and in assay [10] was greater than 100 µM in each case.

For the compound `NC(=O)N/N=C/c1ccccc1O`, the TGI in assay [1], in assay [2], in assay [3], in [4], in assay [6] and in assay [7] was greater than 100 µM each time. Also, the TGI in assay [8] and in assay [9] was greater than 100 µM in each case.

Regarding `C=C(C)COC(=O)COCC(=O)OCC(=C)C`, the TGI in [1], in [2], in assay [3], in assay [5], in [6] and in assay [7] was greater than 100 µM throughout. Moreover, the TGI in [8], in assay [9] and in assay [10] was greater than 100 µM in each case.

In the case of `O=Cc1ccc2[nH]c(=O)oc2c1`, the TGI in assay [1], in assay [2], in assay [4], in assay [5], in assay [6] and in assay [7] was greater than 100 µM each time. The TGI in [9] and in [10] was greater than 100 µM in each case.

With `CCCCn1c2c(n(CCCC)c1=[Se])-c1c(n(CCCC)c(=[Se])n1CCCC)S[Se][Se]S2`, the TGI is greater than 64.6 µM in assay [1]; 39 µM in assay [2]; 34.6 µM in assay [3]; 47.6 µM in [5]; 40.7 µM in assay [6]; 43.3 µM in [7]. Further, the values for the TGI in [8], in [9] and in [10] were greater than 100 µM, greater than 59.9 µM and 25 µM, respectively.

Regarding `CC1CC/C(=C\c2ccc(F)cc2)C2=C1C(c1ccc(F)cc1)n1c(s/c(=C\c3ccc(Cl)cc3)c1=O)=N2` (stereo not drawn), the TGI in assay [1], in assay [3], in assay [4], in assay [5], in assay [6] and in assay [7] was greater than 100 µM each time. This compound also yielded a TGI in assay [9] greater than 100 µM.

For the compound `Cc1ccc(S(=O)(=O)NC(=O)NCC(=O)O)cc1`, the TGI in [1], in assay [3], in assay [4], in assay [5], in assay [6] and in assay [7] was greater than 100 µM throughout. Further, the TGI in [9] is greater than 100 µM.

With `O=C(O)CCCN=C(C(=NCCCC(=O)O)c1ccccc1)c1ccccc1`, the TGI in [2], in assay [5], in assay [6], in [7], in [8] and in [9] was greater than 100 µM each time. In assay [10], this compound displayed a TGI greater than 100 µM.

As for `O=c1[nH]c(Br)nc2c(N3CCCCC3)c[nH]c12`, the TGI in assay [1], in assay [2], in assay [3], in assay [4], in [5] and in assay [6] was greater than 100 µM throughout. The TGI in [7], in [9] and in [10] was greater than 100 µM in each case.

For the compound `CC(=O)Oc1cc2c(n(C)c1=O)CCC2`, the TGI in assay [1], in assay [2], in assay [3], in assay [4], in [5] and in [7] was greater than 100 µM in each case. In addition, the TGI in [8] and in assay [9] was greater than 100 µM in each case.

As for `Cc1cc2nc3c(C#N)c4c(c(Nc5ccc(Cl)cc5)n3c2cc1C)CCC4`, the TGI in assay [1] is 32 µM; in assay [2] it was 64.7 µM; in assay [3], 32.9 µM; in [5], 36.3 µM; in assay [7], 40.9 µM; in [10] it was 35.4 µM.

For `CCCC(=O)Oc1cc(OC(=O)CCC)c2c(C)cc(=O)oc2c1`, the TGI in assay [1], in assay [2], in assay [3], in assay [5], in assay [6] and in assay [7] was greater than 100 µM each time. In addition, the TGI in assay [9] and in [10] was greater than 100 µM throughout.

As to `C1COCCOP2(N3CC3)=NP(N3CC3)(=NP(N3CC3)(N3CC3)=N2)OCCOCCO1` (stereo not drawn), the TGI in [1], in [2], in assay [3], in [4], in [5] and in assay [6] was greater than 100 µM throughout. For the same compound, the TGI in [7], in assay [9] and in [10] was greater than 100 µM in each case.

Consider `CCCNC(=O)c1cc(NC(=O)c2cc(NC(=O)CCS(=O)(=O)OC)cn2C)cn1C`, for which the TGI is greater than 56.9 µM in [1]; 44.1 µM in assay [3]; greater than 100 µM in assay [5]; 48.7 µM in assay [6]; greater than 100 µM in assay [7]; greater than 100 µM in assay [8]. Moreover, the TGI in assay [9] was greater than 76.7 µM; in [10] it was 27.4 µM.

As for `CCC(C)C1NC(=O)C(NC(=O)c2c3nc4c(C(=O)NC5C(=O)NC(C(C)C)C(=O)N6CCCC6C(=O)N(C)CC(=O)N(C)C(C(C)C)C(=O)OC5C)ccc(C)c4oc-3c(C)c(=O)c2N)C(C)OC(=O)C(C(C)C)N(C)C(=O)CN(C)C(=O)C2CCCN2C1=O` (stereo not drawn) (I: TIP[Sar][NMeV] / II: TVP[Sar][NMeV]; ester I:1-I:C, II:1-II:C; linker I:N-II:N via Actinocin(1to9); configuration not given here), the TGI amounted to 0.153 µM in assay [2]; 0.111 µM in assay [3]; 0.163 µM in assay [4]; 0.0132 µM in assay [5]; 17.9 µM in assay [7]; 0.161 µM in assay [9].

`OCC(O)C(O)C(C=NNc1ncnc2ccc(Br)cc12)=NNc1ncnc2ccc(Br)cc12` (stereo not drawn): the TGI is greater than 100 µM in assay [1]; 2.68 µM and 4.28 µM in assay [3]; greater than 100 µM in assay [4]; 88 µM and > 100 µM in assay [5]; greater than 100 µM in assay [7]; 4.91 µM and 17.4 µM in assay [9]. Besides, the TGI in assay [10] was 28.2 µM and > 100 µM.

Turning to `C=[N+](CNC(=O)CNC(=O)C(Cc1ccccc1)NC(=O)OC(C)(C)C)C(=O)CNC(=O)C(Cc1ccccc1)NC(=O)OC(C)(C)C` (stereo not drawn), the TGI in assay [1], in assay [2], in [3], in assay [5], in assay [6] and in [8] was greater than 100 µM in each case. In addition, the TGI in assay [9] and in [10] was greater than 100 µM in each case.

With `CC(=O)c1cccc(NC(=O)/C(=N\NC(=S)NN)C2C(=O)Nc3ccccc3S2=O)c1` (stereo not drawn), the TGI in assay [1], in assay [2], in [3], in assay [4], in [5] and in assay [6] was greater than 100 µM throughout. Also, the TGI in assay [7], in assay [9] and in [10] was greater than 100 µM in each case.

Take `O=C(NC(Cc1ccccc1)P(=O)(O)c1ccccc1)OCc1ccccc1` (stereo not drawn): the TGI in assay [1], in assay [2], in assay [3], in assay [4], in assay [5] and in [6] was greater than 100 µM throughout. In addition, the TGI in [7], in assay [9] and in [10] was greater than 100 µM in each case.

`OCC1(CNc2cc(Cl)ncn2)CCC1`: the TGI in assay [1], in [2], in [3], in assay [4], in assay [5] and in [7] was greater than 100 µM each time. In assay [10], this compound gave a TGI greater than 100 µM.

Regarding `CSc1nc(Cl)c2c(n1)Sc1nc3ccccc3n1N=C2`, the TGI in assay [1] is 53.6 µM; in [2], greater than 100 µM; in assay [3] it was 72.6 µM; in assay [5], 97.2 µM; in assay [6], 84.3 µM; in [7] it was greater than 100 µM. Also, the TGI in [8] was 60.9 µM; in [9], 46.3 µM; in assay [10], 75.8 µM.

As for `CC1(C)O[C@@H](CP(c2ccc3ccccc3c2)c2ccc3ccccc3c2)[C@H](CP(c2ccc3ccccc3c2)c2ccc3ccccc3c2)O1`, the TGI in assay [1], in assay [2], in assay [3], in [5], in assay [6] and in [7] was greater than 100 µM throughout. Also, the TGI in [8], in assay [9] and in assay [10] was greater than 100 µM in each case.

Turning to `Fc1ccc(C(OCCN2CCC3CCC(C2)N3C/C=C/c2cccnc2)c2ccc(F)cc2)cc1` (stereo not drawn), the TGI in assay [1] was determined as 14.6 µM; in [2], 30.3 µM; in [3] it was 14.9 µM; in assay [5], 26.8 µM; in [6] it was 25 µM; in assay [7] it was 24 µM. Besides, the TGI in assay [8] turned out to be 15.6 µM; in assay [9], 7.09 µM; in assay [10] it was 29.5 µM.
